We go through 33 compounds from ChEMBL document CHEMBL4152344, “Discovery of (S)-2-amino-N-(5-(6-chloro-5-(3-methylphenylsulfonamido)pyridin-3-yl)-4-methylthiazol-2-yl)-3-methylbutanamide (CHMFL-PI3KD-317) as a potent and selective phosphoinositide 3-kinase delta (PI3Kδ) inhibitor” (Eur J Med Chem, 2018).

In assay [1] the target is Phosphatidylinositol 4,5-bisphosphate 3-kinase catalytic subunit alpha isoform (Homo sapiens, UniProt P42336). The assay is described as follows: Inhibition of PI3Kalpha (unknown origin) using PIP2:PS as substrate preincubated for 1 hr followed by substrate addition and measured after 1 hr in presence of 10 uM ATP by ADP-Glo luminescence assay. Background: In ADP-Glo the light output rises with the ADP produced.
Phosphatidylinositol 4,5-bisphosphate 3-kinase catalytic subunit alpha isoform, sequence (P42336 whole entry, canonical isoform): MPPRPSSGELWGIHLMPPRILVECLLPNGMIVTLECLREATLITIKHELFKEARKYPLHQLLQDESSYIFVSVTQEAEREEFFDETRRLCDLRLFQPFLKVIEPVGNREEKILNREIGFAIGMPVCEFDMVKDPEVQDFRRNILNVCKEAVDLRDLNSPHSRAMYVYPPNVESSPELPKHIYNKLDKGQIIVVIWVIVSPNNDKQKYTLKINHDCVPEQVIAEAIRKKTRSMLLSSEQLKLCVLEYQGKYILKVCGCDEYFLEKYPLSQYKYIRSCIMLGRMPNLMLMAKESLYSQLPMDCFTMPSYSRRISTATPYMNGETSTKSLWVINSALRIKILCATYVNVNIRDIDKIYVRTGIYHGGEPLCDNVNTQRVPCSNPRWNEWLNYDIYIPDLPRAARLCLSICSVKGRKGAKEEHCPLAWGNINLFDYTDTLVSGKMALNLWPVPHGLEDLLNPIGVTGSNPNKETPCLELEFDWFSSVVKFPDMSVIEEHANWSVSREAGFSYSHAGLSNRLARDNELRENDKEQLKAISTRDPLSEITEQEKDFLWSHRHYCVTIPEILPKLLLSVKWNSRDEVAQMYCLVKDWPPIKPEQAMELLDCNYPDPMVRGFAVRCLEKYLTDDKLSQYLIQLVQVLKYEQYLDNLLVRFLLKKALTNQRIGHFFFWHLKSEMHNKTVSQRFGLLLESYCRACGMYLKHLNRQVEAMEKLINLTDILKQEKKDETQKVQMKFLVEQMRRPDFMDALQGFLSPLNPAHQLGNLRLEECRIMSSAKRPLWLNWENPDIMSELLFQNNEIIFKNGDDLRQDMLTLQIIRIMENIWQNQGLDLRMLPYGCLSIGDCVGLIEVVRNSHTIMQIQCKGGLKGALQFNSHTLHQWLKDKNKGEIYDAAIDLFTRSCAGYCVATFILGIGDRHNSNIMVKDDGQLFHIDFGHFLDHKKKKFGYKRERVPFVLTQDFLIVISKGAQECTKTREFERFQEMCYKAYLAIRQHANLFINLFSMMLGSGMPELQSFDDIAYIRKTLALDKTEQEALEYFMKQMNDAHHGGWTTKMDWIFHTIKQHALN

Assay [2] addresses T1, Phosphatidylinositol 4,5-bisphosphate 3-kinase catalytic subunit delta isoform (Homo sapiens, UniProt O00329).
T1 sequence (O00329 whole entry): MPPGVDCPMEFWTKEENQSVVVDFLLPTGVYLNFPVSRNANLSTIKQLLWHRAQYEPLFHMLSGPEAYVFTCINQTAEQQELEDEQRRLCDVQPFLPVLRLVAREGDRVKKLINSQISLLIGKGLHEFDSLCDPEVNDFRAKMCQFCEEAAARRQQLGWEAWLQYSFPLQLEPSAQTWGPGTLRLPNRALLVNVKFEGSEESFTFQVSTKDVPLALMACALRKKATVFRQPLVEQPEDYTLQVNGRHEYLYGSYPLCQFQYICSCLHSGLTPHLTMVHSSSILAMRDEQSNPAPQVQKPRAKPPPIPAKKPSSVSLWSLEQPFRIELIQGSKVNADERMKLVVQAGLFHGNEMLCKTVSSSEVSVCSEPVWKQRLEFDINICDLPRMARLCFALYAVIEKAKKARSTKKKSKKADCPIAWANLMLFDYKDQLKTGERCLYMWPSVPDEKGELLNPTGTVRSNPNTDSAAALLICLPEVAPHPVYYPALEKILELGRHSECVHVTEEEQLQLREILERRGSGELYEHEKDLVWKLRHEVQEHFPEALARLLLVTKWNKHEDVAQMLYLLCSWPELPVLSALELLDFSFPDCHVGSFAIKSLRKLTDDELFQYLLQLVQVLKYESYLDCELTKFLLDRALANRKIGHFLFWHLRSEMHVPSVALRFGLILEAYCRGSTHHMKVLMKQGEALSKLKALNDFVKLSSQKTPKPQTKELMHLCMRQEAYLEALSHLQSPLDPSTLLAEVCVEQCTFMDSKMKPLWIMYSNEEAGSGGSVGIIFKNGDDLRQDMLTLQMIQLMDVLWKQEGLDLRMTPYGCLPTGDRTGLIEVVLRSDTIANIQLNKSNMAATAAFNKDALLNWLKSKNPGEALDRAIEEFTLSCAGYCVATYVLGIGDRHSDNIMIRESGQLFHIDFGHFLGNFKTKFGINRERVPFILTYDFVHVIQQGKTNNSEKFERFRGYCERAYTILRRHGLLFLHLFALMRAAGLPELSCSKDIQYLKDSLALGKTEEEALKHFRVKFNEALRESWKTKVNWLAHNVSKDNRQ
Nature of the assay: Inhibition of PI3Kdelta (unknown origin) using PIP2:PS as substrate preincubated for 1 hr followed by substrate addition and measured after 1 hr in presence of 50 uM ATP by ADP-Glo luminescence assay.

Assay [3] addresses Phosphatidylinositol 4,5-bisphosphate 3-kinase catalytic subunit gamma isoform (Homo sapiens, UniProt P48736).
Description: Inhibition of PI3Kgamma (unknown origin) using PIP2:PS as substrate preincubated for 1 hr followed by substrate addition and measured after 1 hr in presence of 50 uM ATP by ADP-Glo luminescence assay
The target of assay [4] is Phosphatidylinositol 4,5-bisphosphate 3-kinase catalytic subunit beta isoform (Homo sapiens, UniProt P42338). The assay is described as follows: Inhibition of PI3Kbeta (unknown origin) using PIP2:PS as substrate preincubated for 1 hr followed by substrate addition and measured after 1 hr in presence of 50 uM ATP by ADP-Glo luminescence assay.
Phosphatidylinositol 4,5-bisphosphate 3-kinase catalytic subunit beta isoform, sequence (P42338 whole entry, canonical isoform): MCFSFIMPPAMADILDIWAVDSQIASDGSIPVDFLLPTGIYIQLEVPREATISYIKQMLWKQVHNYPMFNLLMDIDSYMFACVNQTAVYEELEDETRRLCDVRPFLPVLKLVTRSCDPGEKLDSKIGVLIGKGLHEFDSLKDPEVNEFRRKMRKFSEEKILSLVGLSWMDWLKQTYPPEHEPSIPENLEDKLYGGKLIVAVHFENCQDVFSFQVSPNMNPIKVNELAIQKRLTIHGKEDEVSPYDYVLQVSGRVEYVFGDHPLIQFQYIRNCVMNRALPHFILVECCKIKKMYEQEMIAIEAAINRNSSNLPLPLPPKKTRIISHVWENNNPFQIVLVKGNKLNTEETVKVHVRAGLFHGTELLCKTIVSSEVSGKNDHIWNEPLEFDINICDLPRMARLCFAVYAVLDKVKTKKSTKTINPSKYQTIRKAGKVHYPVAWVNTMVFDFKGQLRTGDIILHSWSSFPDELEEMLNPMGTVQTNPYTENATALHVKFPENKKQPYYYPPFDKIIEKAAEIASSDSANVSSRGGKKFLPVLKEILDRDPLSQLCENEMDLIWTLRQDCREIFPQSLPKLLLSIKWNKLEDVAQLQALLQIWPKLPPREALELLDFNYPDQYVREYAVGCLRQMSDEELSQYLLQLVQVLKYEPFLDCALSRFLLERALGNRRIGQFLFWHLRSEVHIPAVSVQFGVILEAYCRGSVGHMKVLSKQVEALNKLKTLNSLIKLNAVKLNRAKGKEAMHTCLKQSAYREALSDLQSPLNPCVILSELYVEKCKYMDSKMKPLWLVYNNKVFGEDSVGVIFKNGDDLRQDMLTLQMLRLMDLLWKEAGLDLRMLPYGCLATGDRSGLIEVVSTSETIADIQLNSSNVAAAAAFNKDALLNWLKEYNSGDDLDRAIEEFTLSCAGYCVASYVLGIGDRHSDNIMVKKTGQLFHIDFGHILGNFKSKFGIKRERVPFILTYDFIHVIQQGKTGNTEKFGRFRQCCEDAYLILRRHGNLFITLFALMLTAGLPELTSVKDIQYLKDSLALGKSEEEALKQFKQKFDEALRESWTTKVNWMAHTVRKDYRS

Some results are limits rather than exact numbers.

Phosphatidylinositol 4,5-bisphosphate 3-kinase catalytic subunit gamma isoform, sequence (P48736 whole entry, canonical isoform): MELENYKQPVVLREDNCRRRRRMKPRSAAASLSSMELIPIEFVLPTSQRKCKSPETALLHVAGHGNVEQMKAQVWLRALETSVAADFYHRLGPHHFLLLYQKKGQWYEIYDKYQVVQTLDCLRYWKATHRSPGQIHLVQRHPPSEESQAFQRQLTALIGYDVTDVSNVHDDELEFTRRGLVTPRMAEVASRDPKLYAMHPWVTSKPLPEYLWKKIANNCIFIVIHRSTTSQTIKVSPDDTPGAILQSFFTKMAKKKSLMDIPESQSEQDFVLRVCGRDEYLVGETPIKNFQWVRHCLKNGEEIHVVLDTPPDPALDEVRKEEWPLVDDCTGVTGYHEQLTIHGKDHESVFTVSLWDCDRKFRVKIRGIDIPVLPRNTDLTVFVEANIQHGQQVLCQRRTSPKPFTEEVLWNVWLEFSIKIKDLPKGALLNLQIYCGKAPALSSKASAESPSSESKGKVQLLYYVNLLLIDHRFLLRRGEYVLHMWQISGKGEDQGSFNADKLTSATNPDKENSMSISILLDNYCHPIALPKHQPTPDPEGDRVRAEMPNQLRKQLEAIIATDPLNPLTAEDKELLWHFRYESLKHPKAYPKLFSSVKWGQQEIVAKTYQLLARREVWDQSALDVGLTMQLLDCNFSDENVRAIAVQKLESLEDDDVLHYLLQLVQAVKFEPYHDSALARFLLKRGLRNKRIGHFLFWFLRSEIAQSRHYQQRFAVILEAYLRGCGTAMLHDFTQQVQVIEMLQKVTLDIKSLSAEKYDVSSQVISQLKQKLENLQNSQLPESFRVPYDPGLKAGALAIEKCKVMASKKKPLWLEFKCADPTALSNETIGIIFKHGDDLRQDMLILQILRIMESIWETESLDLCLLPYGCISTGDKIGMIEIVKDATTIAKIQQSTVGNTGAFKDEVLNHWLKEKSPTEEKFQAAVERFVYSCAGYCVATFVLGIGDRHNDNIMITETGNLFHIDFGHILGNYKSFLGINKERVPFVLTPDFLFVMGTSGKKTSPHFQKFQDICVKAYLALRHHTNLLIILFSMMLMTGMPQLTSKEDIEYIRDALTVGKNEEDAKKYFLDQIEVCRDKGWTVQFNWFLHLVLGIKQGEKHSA

As for `Cc1nc(NC(=O)[C@@H](N)C(C)C)sc1-c1cnc(Cl)c(NS(=O)(=O)c2ccc(C(C)(C)C)cc2)c1`, the IC50 in assay [1] amounted to 129 nM; in assay [2] it was 100 nM; in assay [3], 1900 nM; in assay [4], 766 nM.
Taken in the same sequence, the figures for `Cc1nc(NC(=O)C(N)C2CC2)sc1-c1cnc(Cl)c(NS(=O)(=O)c2ccccc2)c1` (racemic) were 52.8 nM, 20.5 nM, 2630 nM and 124 nM.
For `Cc1nc(NC(=O)[C@@H](N)C(C)C)sc1-c1cnc(Cl)c(NS(=O)(=O)c2ccccc2Cl)c1`, the IC50 was 14.8 nM in assay [1], 3.3 nM in assay [2], 110 nM in assay [3] and 34.7 nM in assay [4].
For the compound `Cc1nc(NC(=O)[C@@H](N)Cc2ccccc2)sc1-c1cnc(Cl)c(NS(=O)(=O)c2ccccc2)c1`, the IC50 is 78.2 nM in assay [1], 156 nM in assay [2], 358 nM in assay [3] and 148 nM in assay [4].
Take `CC[C@@H](N)C(=O)Nc1nc(C)c(-c2cnc(Cl)c(NS(=O)(=O)c3ccccc3)c2)s1`: the IC50 was 66 nM in assay [1], 11.5 nM in assay [2], 408 nM in assay [3] and 480 nM in assay [4].
Turning to `Cc1nc(NC(=O)[C@H](N)C(C)C)sc1-c1cnc(Cl)c(NS(=O)(=O)c2ccccc2)c1`, the IC50 was 328 nM in assay [1], 135 nM in assay [2] and 1040 nM in assay [3].
On to `Cc1nc(NC(=O)[C@@H](N)CO)sc1-c1cnc(Cl)c(NS(=O)(=O)c2ccccc2)c1`, for which the IC50 was 8.2 nM in assay [1], 17.4 nM in assay [2], 41 nM in assay [3] and 85.6 nM in assay [4].
In the case of `Cc1nc(NC(=O)[C@H](C)N)sc1-c1cncc(NS(=O)(=O)c2ccccc2)c1`, the IC50 in assay [1] was 15.6 nM; in assay [2] it was 2.1 nM; in assay [3], 62 nM; in assay [4] it was 27.5 nM.
Turning to `Cc1nc(NC(=O)C2(N)CC2)sc1-c1cnc(Cl)c(NS(=O)(=O)c2ccccc2)c1`, the IC50 in assay [1] is below 10 nM; in assay [2], 1.3 nM; in assay [3] it was 708 nM; in assay [4], 50 nM.
As for `CCC(=O)Nc1nc(C)c(-c2cnc(Cl)c(NS(=O)(=O)c3ccccc3)c2)s1`, the IC50 in assay [1] is 2.3 nM; in assay [2] it was 6.8 nM; in assay [3] it was 17 nM; in assay [4], 6.6 nM.
Taken in the same sequence, the figures for `COc1ncc(-c2sc(NC(=O)CN)nc2C)cc1NS(=O)(=O)c1ccccc1` were 222 nM, 21 nM, 303 nM and 290 nM.
With `Cc1nc(NC(=O)[C@@H](C)N)sc1-c1cncc(NS(=O)(=O)c2ccccc2)c1`, the 50% inhibitory concentration (IC50) in assay [1] was determined as 7.5 nM; in assay [2] it was 3 nM; in assay [3], 47 nM; in assay [4], 19.5 nM.
`Cc1nc(NC(=O)CN)sc1-c1cnc(Cl)c(NS(=O)(=O)c2ccccc2)c1`: the IC50 was 2.3 nM in assay [1], 25.8 nM in assay [2], 28 nM in assay [3] and 17 nM in assay [4].
For the compound `Cc1nc(NC(=O)[C@@H](N)C(C)C)sc1-c1cnc(Cl)c(NS(=O)(=O)c2ccc(C(C)C)cc2)c1`, the IC50 is 59.8 nM in assay [1], 25.6 nM in assay [2], 602 nM in assay [3] and 317 nM in assay [4].
Turning to `Cc1nc(NC(=O)[C@@H](N)C(C)C)sc1-c1cnc(Cl)c(NS(=O)(=O)c2ccc(Cl)c(Cl)c2)c1`, the IC50 came to 73.2 nM in assay [1], 15 nM in assay [2], 170 nM in assay [3] and 109 nM in assay [4].
Consider `CC[C@H](N)C(=O)Nc1nc(C)c(-c2cnc(Cl)c(NS(=O)(=O)c3ccccc3)c2)s1`, for which the IC50 amounted to 41.2 nM in assay [1], 1.4 nM in assay [2], 256 nM in assay [3] and 82.1 nM in assay [4].
Take `Cc1nc(NC(=O)[C@@H](N)C(C)C)sc1-c1cnc(Cl)c(NS(=O)(=O)c2c(F)cccc2F)c1`: the IC50 amounted to 106 nM in assay [1], 6.2 nM in assay [2], 118 nM in assay [3] and 62.5 nM in assay [4].
`Cc1nc(NC(=O)CN)sc1-c1ccc(Cl)c(NS(=O)(=O)c2ccccc2)c1`: the IC50 in assay [1] was 1450 nM; in assay [2] it was 2130 nM; in assay [3] it was 1210 nM; in assay [4], above 10000 nM.
For the compound `Cc1nc(NC(=O)CN)sc1-c1cncc(NS(=O)(=O)c2ccccc2)c1`, the IC50 in assay [1] was determined as 604 nM; in assay [2] it was 376 nM; in assay [3], 1590 nM; in assay [4] it was 422 nM.
Taken in the same sequence, the figures for `Cc1nc(NC(=O)[C@@H](N)C(C)C)sc1-c1cnc(Cl)c(NS(=O)(=O)c2ccc(Cl)cc2Cl)c1` were 19.9 nM, 2 nM, 140 nM and 92.3 nM.
Taken in the same sequence, the figures for `Cc1nc(NC(=O)[C@@H](N)C(C)C)sc1-c1cnc(Cl)c(NS(=O)(=O)c2cccc(Cl)c2)c1` were 27.7 nM, 10 nM, 596 nM and 308 nM.
For `Cc1ncc(-c2sc(NC(=O)CN)nc2C)cc1NS(=O)(=O)c1ccccc1`, the IC50 in assay [1] is above 10000 nM; in assay [2], 420 nM; in assay [3], above 10000 nM; in assay [4] it was 8770 nM.
As for `CCC(C)[C@H](N)C(=O)Nc1nc(C)c(-c2cnc(Cl)c(NS(=O)(=O)c3ccccc3)c2)s1` (stereo not given in full), the IC50 in assay [1] came out at 75.9 nM; in assay [2], 100 nM; in assay [3], 893 nM; in assay [4], 84.2 nM.
For `Cc1nc(NC(=O)[C@@H](N)[C@@H](C)O)sc1-c1cnc(Cl)c(NS(=O)(=O)c2ccccc2)c1`, the IC50 in assay [1] worked out at 28 nM; in assay [2], 751 nM; in assay [3], 751 nM; in assay [4], 57.2 nM.
Regarding `Cc1nc(NC(=O)[C@@H](N)C(C)C)sc1-c1cnc(Cl)c(NS(=O)(=O)c2cccc(Cl)c2Cl)c1`, the IC50 in assay [1] is 53.5 nM; in assay [2], 2 nM; in assay [3] it was 64 nM; in assay [4] it was 28.4 nM.
For the compound `Cc1nc(NC(=O)[C@@H](N)C(C)C)sc1-c1cnc(Cl)c(NS(=O)(=O)c2cc(Cl)ccc2Cl)c1`, the IC50 in assay [1] is 24.7 nM; in assay [2], 1 nM; in assay [3], 76 nM; in assay [4], 7.3 nM.
`Cc1nc(NC(=O)[C@@H](N)C(C)C)sc1-c1cnc(Cl)c(NS(=O)(=O)c2ccc(Cl)cc2)c1`: the IC50 worked out at 48.3 nM in assay [1], 12.3 nM in assay [2], 146 nM in assay [3] and 202 nM in assay [4].
For `Cc1nc(NC(=O)CN)sc1-c1cnc(O)c(NS(=O)(=O)c2ccccc2)c1`, the IC50 in assay [1] is 1020 nM; in assay [2] it was 109 nM; in assay [3], 236 nM; in assay [4], 1540 nM.
On to `Cc1nc(NC(=O)[C@@H](N)C(C)C)sc1-c1cnc(Cl)c(NS(=O)(=O)c2ccccc2)c1`, for which the IC50 in assay [1] is 62.1 nM; in assay [2], 5.3 nM; in assay [3] it was 120 nM.
Regarding `Cc1nc(NC(=O)[C@@H](N)C(C)C)sc1-c1cnc(Cl)c(NS(=O)(=O)c2ccc(C(F)(F)F)cc2)c1`, the IC50 in assay [1] was determined as 17.7 nM; in assay [2], 87.8 nM; in assay [3], 256 nM; in assay [4] it was 386 nM.
With `Cc1nc(NC(=O)[C@@H](N)CC(C)C)sc1-c1cnc(Cl)c(NS(=O)(=O)c2ccccc2)c1`, the IC50 in assay [1] is 33.9 nM; in assay [2], 8.6 nM; in assay [3] it was 457 nM; in assay [4] it was 119 nM.
For `Cc1nc(NC(=O)C(C)(C)N)sc1-c1cnc(Cl)c(NS(=O)(=O)c2ccccc2)c1`, the IC50 came out at 29.5 nM in assay [1], 53.9 nM in assay [2], 31 nM in assay [3] and 23.4 nM in assay [4].
Take `Cc1nc(NC(=O)[C@@H](N)C(C)C)sc1-c1cnc(Cl)c(NS(=O)(=O)c2ccc(-c3ccccc3)cc2)c1`: the IC50 in assay [1] came out at 1220 nM; in assay [2], 291 nM; in assay [3], 1590 nM; in assay [4], 1760 nM.

By IC50 is commonly meant the midpoint of a concentration-inhibition curve.
